Experiments:
Experiment in all cases: Esterase Activity Assay
Conditions in all cases: pH 7.4
Carbonic anhydrase 1 = Carbonic anhydrase 1 (Homo sapiens, UniProt P00915)
Carbonic anhydrase 2 = Carbonic anhydrase 2 (Homo sapiens, UniProt P00918)
Carbonic anhydrase 3 = biological target: T1, Carbonic anhydrase 3 (Bos taurus, UniProt Q3SZX4)
T1 sequence (Q3SZX4 whole entry): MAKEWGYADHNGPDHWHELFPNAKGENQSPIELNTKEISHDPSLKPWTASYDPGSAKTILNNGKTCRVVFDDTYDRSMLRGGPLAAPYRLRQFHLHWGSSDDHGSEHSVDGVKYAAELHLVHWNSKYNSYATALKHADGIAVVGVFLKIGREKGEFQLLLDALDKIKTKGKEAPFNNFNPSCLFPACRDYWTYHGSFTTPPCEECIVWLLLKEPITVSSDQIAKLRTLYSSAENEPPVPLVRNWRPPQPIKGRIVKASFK

Carbonic anhydrase 4 = Carbonic anhydrase 4 (Homo sapiens, UniProt P22748)
Carbonic anhydrase 4, sequence (P22748 whole entry): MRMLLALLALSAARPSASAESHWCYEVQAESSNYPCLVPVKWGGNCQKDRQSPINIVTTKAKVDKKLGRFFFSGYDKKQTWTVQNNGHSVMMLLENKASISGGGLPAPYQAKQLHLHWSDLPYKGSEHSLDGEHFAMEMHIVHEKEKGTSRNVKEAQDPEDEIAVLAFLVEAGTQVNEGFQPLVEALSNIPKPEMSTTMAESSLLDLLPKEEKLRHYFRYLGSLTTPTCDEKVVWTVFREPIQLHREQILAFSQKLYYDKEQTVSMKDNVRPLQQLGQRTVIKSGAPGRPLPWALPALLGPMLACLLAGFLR

Carbonic anhydrase 6 = Carbonic anhydrase 6 (Homo sapiens, UniProt P23280)
Carbonic anhydrase 6, sequence (P23280 whole entry): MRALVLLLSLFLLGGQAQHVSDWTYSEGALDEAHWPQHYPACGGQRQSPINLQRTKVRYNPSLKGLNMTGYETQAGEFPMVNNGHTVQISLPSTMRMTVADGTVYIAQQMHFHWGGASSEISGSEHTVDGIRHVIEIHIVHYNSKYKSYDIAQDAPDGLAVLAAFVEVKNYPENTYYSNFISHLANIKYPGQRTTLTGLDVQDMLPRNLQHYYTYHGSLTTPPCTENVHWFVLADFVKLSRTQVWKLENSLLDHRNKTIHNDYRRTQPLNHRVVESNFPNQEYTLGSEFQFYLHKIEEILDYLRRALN

Carbonic anhydrase 1, sequence (P00915 whole entry): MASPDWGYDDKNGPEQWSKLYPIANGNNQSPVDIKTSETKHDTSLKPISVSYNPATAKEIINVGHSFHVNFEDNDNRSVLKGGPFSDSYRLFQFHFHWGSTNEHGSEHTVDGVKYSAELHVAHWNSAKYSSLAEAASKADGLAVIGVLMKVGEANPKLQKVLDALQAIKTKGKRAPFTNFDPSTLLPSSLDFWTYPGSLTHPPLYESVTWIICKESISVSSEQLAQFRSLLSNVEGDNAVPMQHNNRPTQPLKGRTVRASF

Row | Compound | Ki (Carbonic anhydrase 1) [nM] | Ki (Carbonic anhydrase 2) [nM] | Ki (Carbonic anhydrase 3) [µM] | Ki (Carbonic anhydrase 4) [µM] | Ki (Carbonic anhydrase 6) [µM]
1 | Oc1cccc(O)c1 |  |  | 196 |  | 
2 | CC(C)(O)[C@@H]1CC[C@](C)([C@H]2[C@@H](O)C[C@@]3(C)C4C[C@H](O[C@@H]5OC(CO)[C@@H](O)C(O)[C@@H]5O)C5C(C)(C)[C@@H](O[C@@H]6OC[C@@H](O)C(O)[C@@H]6O[C@@H]6OC[C@H](O)C(O)[C@@H]6O)CC[C@@]56C[C@@]46CC[C@]23C)O1 (stereo partly drawn) [α-CA inhibitor, 7] | 940 | 470 | 1.38 | 2.41 | 4.71
3 | CC(C)(O)[C@@H]1CC[C@](C)([C@H]2[C@@H](O)C[C@@]3(C)C4C[C@H](O[C@@H]5OC(CO)[C@@H](O)C(O)[C@@H]5O)C5C(C)(C)[C@@H](O[C@@H]6OC[C@@H](O)C(O)[C@@H]6O)CC[C@@]56C[C@@]46CC[C@]23C)O1 (stereo partly drawn) [α-CA inhibitor, 8] | 1470 | 970 | 1.93 | 2.75 | 6.96
4 | O=c1c(O)c(-c2ccc(O)c(O)c2)oc2cc(O)cc(O)c12 [2-(3,4-dihydroxyphenyl)-3,5,7-trihydroxy-chromone;hydrate] |  |  | 3.73 |  | 
5 | Oc1ccccc1O [1,2-Dihydroxybenzene, XI] |  |  | 5.79 |  | 

More lines, now with the values ahead:

Row | Ki (Carbonic anhydrase 1) [nM] | Ki (Carbonic anhydrase 2) [nM] | Ki (Carbonic anhydrase 3) [µM] | Ki (Carbonic anhydrase 4) [µM] | Ki (Carbonic anhydrase 6) [µM] | Compound
6 | 2210 | 1280 | 2.49 | 4.36 | 9.78 | CC(C)(O)[C@@H]1CC[C@](C)([C@H]2[C@@H](O)C[C@@]3(C)C4C[C@H](O[C@@H]5OC[C@@H](O)C(O)[C@@H]5O)C5C(C)(C)[C@@H](O[C@@H]6OC[C@@H](O)C(O)[C@@H]6O)CC[C@@]56C[C@@]46CC[C@]23C)O1 (stereo partly drawn) [α-CA inhibitor, 10]
7 | 2320 | 1240 | 8.93 | 3.98 | 4.36 | Oc1cc(O)c2c(c1)O[C@H](c1ccc(O)c(O)c1)[C@H](O)C2
8 |  |  | 9.71 |  |  | Oc1cc(O)c2c(c1)O[C@H](c1ccc(O)c(O)c1)[C@@H](O)C2 [(+)-Catechin]
